Data from patent US12697331B2, “Methods of use of T-type calcium channel modulators” (PRAXIS PRECISION MEDICINES, INC., priority 2020, dated 2026).

Tests used:
[1] = tested on: essential tremor; conditions: cited from earlier work; for Efficacy for treating essential tremors in clinical trials: adverse effects led to patient discontinuance
[2] = cited from earlier work
[3] = Phase 1 single and multiple ascending doses of formulation 3: safety and tolerability; format: in vivo, human; conditions: single 60 mg, 6 healthy volunteers, no titration
Protocol: This was a 2-part, Phase 1 double blind, placebo controlled trial to assess the safety, tolerability, pharmacokinetics, and pharmacodynamics (including the KSS, the KDT, the SQSQ and 24-hour EEG recordings), of single, ascending (Part A: 20, 40, and 60 mg) and multiple, ascending (Part B: 20 and 40 mg for 8 days) doses of the 20 mg tablet (formulation 3) in healthy participants. […] Variability in Cmax and AUC increased with increasing dose following a single oral dose of the 20 mg tablet formulation (formulation 3) (FIG. 16).
Adverse events for the doses of 20 and 40 mg were transient and occurred at a rate similar to placebo. The following TEAEs were observed, all of which were mild to moderate: […]

[4] = Within-participant escalating dose trial Part A (5, 10, 20 mg): plasma pharmacokinetics; format: in vivo, human
Protocol: (§1) In Part A, an open label trial was conducted.

[5] = Within-participant escalating dose trial Part A: safety and tolerability (TEAEs); format: in vivo, human
Protocol: as §1

[6] = Within-participant escalating dose trial Part B: safety and tolerability (TEAEs); format: in vivo, human
[7] = Within-participant escalating dose trial Part B (20-120 mg titration): pharmacokinetics; conditions: titrated dosing schedule
Protocol: A trial was conducted to study the safety, tolerability, pharmacokinetics and pharmacodynamics of the compound of formula (I) in healthy participants. Each participant completed 3 study periods: Screening, Treatment period (12 or 31 days), and Safety follow-up.
In Part B, a randomized controlled trial was conducted. […] Patients were allowed to receive the compound of formula (I) daily at each of 60 mg, 80 mg, and 100 mg dose levels for an extended period of up to 2 days.
Patients were discharged on D33 after all study assessments were completed and scheduled for Safety Follow-up on Day 36 (±1 day) via telephone call. Pharmacokinetics of the compound of formula (I) was evaluated by performing LC/MS quantification of levels of the compound in plasma and urine. […] Phamacokinetic parameters determined for the compound of formula (I) include, but are not limited to, AUCt, AUCinf, AUCtau, Cmax, tmax, t1/2, CL/F and Vd/F.

[8] = 28-day essential tremor study (WO 2020/072773)

Question: Which “Discontinuation due to intolerability of adverse events” value [1, 8] does the source give for `CC(C)c1ccc(CC(=O)N[C@H](C)c2ccc(OCC(F)(F)F)cn2)cc1` [CX-8998] here?
Answer: 17%

Question: And the Discontinuation rate [1, 8]?
Answer: 23%

Question: And the “Titrated daily dose reached” value ([2]; Papapetropoulos et al. 2019, 2021)?
Answer: 20 mg

Question: And the “Highest non-titrated dose safely administered to patients” value ([2]; single doses, WO 2020/072773)?
Answer: 16 mg

Question: For `CC1(C)O[C@@H]2[C@@H](CO[C@@]3(COS(N)(=O)=O)OC(C)(C)O[C@@H]23)O1` [topiramate], which “Efficacy for treating essential tremors in clinical trials” value [1] is on record?
Answer: effective

Question: With `NS(=O)(=O)Cc1noc2ccccc12` [zonisamide] as the compound, how does the “Efficacy for treating essential tremors in clinical trials” value [1] read?
Answer: effective

Question: With `CC(C)(C)NC(=O)CN1CCC(CNC(=O)c2cc(F)cc(Cl)c2)CC1` [compound of formula (I), N-((1-(2-(tert-butylamino)-2-oxoethyl)piperidin-4-yl)methyl)-3-chloro-5-fluorobenzamide] as the compound, how does the Tolerability [3] read?
Answer: not tolerated

Question: And the “Time the compound remained quantifiable in plasma” value ([4]; 5 mg dose, 24 hour sampling period)?
Answer: ≥ 24 h

Question: And the “Time by which plasma concentrations were quantifiable” value ([4]; single 5 mg dose, healthy volunteers)?
Answer: ≤ 0.50 h

Question: And the “Participants with at least one TEAE” value ([5]; 5 mg (N = 8))?
Answer: 5 (62.5%) n (%)

Question: What about the “TEAE: Dry eye” value ([5]; 5 mg (N = 8)) of the same compound?
Answer: 1 (12.5%) n (%)

Question: What about the “TEAE: Eye disorders” value ([5]; 5 mg (N = 8)) of the same compound?
Answer: 2 (25.0%) n (%)

Question: What about the “TEAE: General Disorders and Administration Site Conditions” value ([5]; 5 mg (N = 8)) of the same compound?
Answer: 3 (37.5%) n (%)

Question: And the “TEAE: Headache” value ([5]; 5 mg (N = 8))?
Answer: 2 (25.0%) n (%)

Question: What about the “TEAE: Lethargy” value ([5]; 5 mg (N = 8)) of the same compound?
Answer: 1 (12.5%) n (%)

Question: And the “TEAE: Medical device site dermatitis” value ([5]; 5 mg (N = 8))?
Answer: 1 (12.5%) n (%)

Question: What about the “TEAE: Nervous System Disorders” value ([5]; 5 mg (N = 8)) of the same compound?
Answer: 2 (25.0%) n (%)

Question: And the “TEAE: Vessel puncture site thrombosis” value ([5]; 5 mg (N = 8))?
Answer: 1 (12.5%) n (%)

Question: And the “Participants with at least one TEAE” value ([5]; 10 mg (N = 8))?
Answer: 5 (62.5%) n (%)

Question: What about the “TEAE: Dry eye” value ([5]; 10 mg (N = 8)) of the same compound?
Answer: 2 (25.0%) n (%)

Question: What about the “TEAE: Eye disorders” value ([5]; 10 mg (N = 8)) of the same compound?
Answer: 2 (25.0%) n (%)

Question: What about the “TEAE: General Disorders and Administration Site Conditions” value ([5]; 10 mg (N = 8)) of the same compound?
Answer: 3 (37.5%) n (%)

Question: What about the “TEAE: Headache” value ([5]; 10 mg (N = 8)) of the same compound?
Answer: 0 n (%)

Question: And the “TEAE: Lethargy” value ([5]; 10 mg (N = 8))?
Answer: 0 n (%)

Question: What about the “TEAE: Medical device site dermatitis” value ([5]; 10 mg (N = 8)) of the same compound?
Answer: 2 (25.0%) n (%)

Question: What about the “TEAE: Nervous System Disorders” value ([5]; 10 mg (N = 8)) of the same compound?
Answer: 0 n (%)

Question: What about the “TEAE: Vessel puncture site thrombosis” value ([5]; 10 mg (N = 8)) of the same compound?
Answer: 1 (12.5%) n (%)

Question: What about the “Participants with at least one TEAE” value ([5]; 20 mg (N = 8)) of the same compound?
Answer: 3 (37.5%) n (%)

Question: What about the “TEAE: Dry eye” value ([5]; 20 mg (N = 8)) of the same compound?
Answer: 0 n (%)

Question: What about the “TEAE: Eye disorders” value ([5]; 20 mg (N = 8)) of the same compound?
Answer: 0 n (%)

Question: And the “TEAE: General Disorders and Administration Site Conditions” value ([5]; 20 mg (N = 8))?
Answer: 1 (12.5%) n (%)

Question: What about the “TEAE: Headache” value ([5]; 20 mg (N = 8)) of the same compound?
Answer: 1 (12.5%) n (%)

Question: And the “TEAE: Medical device site dermatitis” value ([5]; 20 mg (N = 8))?
Answer: 0 n (%)

Question: And the “TEAE: Nervous System Disorders” value ([5]; 20 mg (N = 8))?
Answer: 1 (12.5%) n (%)

Question: And the “TEAE: Vessel puncture site thrombosis” value ([5]; 20 mg (N = 8))?
Answer: 0 n (%)

Question: What about the “Participants with at least one TEAE” value ([5]; Overall (N = 8)) of the same compound?
Answer: 7 (87.5%) n (%)

Question: And the “TEAE: Dry eye” value ([5]; Overall (N = 8))?
Answer: 3 (37.5%) n (%)

Question: What about the “TEAE: Eye disorders” value ([5]; Overall (N = 8)) of the same compound?
Answer: 3 (37.5%) n (%)

Question: And the “TEAE: Headache” value ([5]; Overall (N = 8))?
Answer: 3 (37.5%) n (%)

Question: And the “TEAE: Lethargy” value ([5]; Overall (N = 8))?
Answer: 2 (25.0%) n (%)

Question: What about the “TEAE: Medical device site dermatitis” value ([5]; Overall (N = 8)) of the same compound?
Answer: 3 (37.5%) n (%)

Question: And the “TEAE: Nervous System Disorders” value ([5]; Overall (N = 8))?
Answer: 3 (37.5%) n (%)

Question: What about the “TEAE: Vessel puncture site thrombosis” value ([5]; Overall (N = 8)) of the same compound?
Answer: 2 (25.0%) n (%)

Question: And the “Participants with at least one TEAE” value ([6]; human, in vivo, 31 days)?
Answer: 12 (100%)^ n (%)

Question: What about the “TEAE: Cardiac Disorders” value ([6]; human, in vivo, 31 days) of the same compound?
Answer: 4 (33.3%) n (%)

Question: And the “TEAE: Chest discomfort” value ([6]; human, in vivo, 31 days)?
Answer: 2 (16.7%) n (%)

Question: What about the “TEAE: Dizziness” value ([6]; human, in vivo, 31 days) of the same compound?
Answer: 3 (25.0%) n (%)

Question: And the “TEAE: General Disorders and Administration Site Conditions” value ([6]; human, in vivo, 31 days)?
Answer: 6 (50.0%) n (%)

Question: And the “TEAE: Headache” value ([6]; human, in vivo, 31 days)?
Answer: 2 (16.7%) n (%)

Question: And the “TEAE: Intoxicated sensation” value ([6]; human, in vivo, 31 days)?
Answer: 2 (16.7%) n (%)

Question: What about the “TEAE: Medical device site dermatitis” value ([6]; human, in vivo, 31 days) of the same compound?
Answer: 3 (25.0%) n (%)

Question: What about the “TEAE: Nervous System Disorders” value ([6]; human, in vivo, 31 days) of the same compound?
Answer: 5 (41.7%) n (%)

Question: What about the “TEAE: Palpitations” value ([6]; human, in vivo, 31 days) of the same compound?
Answer: 2 (16.7%) n (%)

Question: What about the “SAEs and severe AEs” value ([6]; in vivo) of the same compound?
Answer: no SAEs and no severe AEs

Question: And the “Dose levels well-tolerated with a titrated dosing schedule” value ([6]; titration 20 to 120 mg per day, no maximum tolerated dosage identified)?
Answer: ≤ 120 mg per day

Question: What about the “Increase of Cmax and AUC24 above values of a lower dosage not tolerated without titration” value [7] of the same compound?
Answer: 2-3 fold
